Calls of active or inactive are those of the source.
What was measured:
[1] = tested on: HL-60; experiment: Induction of apoptosis in human HL60 cells assessed as intercucleosomal DNA fragmentation at 10 uM by […] staining by flow cytometry; assay type: functional, cell-based; details: TDE = time-dependent effect
[2] = tested on: HL-60; experiment: Induction of apoptosis in human HL60 cells assessed as PARP-1 at 10 uM after 36 hrs by Western blot analysis; assay type: functional, cell-based
[3] = Cytotoxicity against human Chang cells by MTT assay; assay type: cell-based
[4] = tested on: Ca-Ski; experiment: Cytotoxicity against human CaSki cells by MTT assay; assay type: functional, cell-based
[5] = tested on: HL-60; experiment: Induction of apoptosis in human HL60 cells assessed as procaspase 9 cleavage at 10 uM after 36 hrs by Western blot analysis; assay type: functional, cell-based
[6] = tested on: HL-60; experiment: Induction of apoptosis in NAC pretreated human HL60 cells assessed as increase in JNK phosphorylation level; assay type: functional, cell-based
[7] = tested on: HL-60; experiment: Induction of apoptosis in human HL60 cells assessed as procaspase 8 cleavage at 10 uM after 36 hrs by Western blot analysis; assay type: functional, cell-based
[8] = tested on: HL-60; experiment: Induction of apoptosis in human HL60 cells assessed as cytochrome c release from mitochondria at 10 uM after 12 hrs by Western blot analysis; assay type: functional, cell-based
[9] = tested on: U-937; experiment: Induction of apoptosis in human U937 cells assessed as early apoptotic cells at 10 uM by Annexin V staining; assay type: functional, cell-based; details: TDE = time-dependent effect
[10] = tested on: HL-60; experiment: Induction of apoptosis in human HL60 cells assessed as increase in ROS production in presence of 10 mM NAC; assay type: functional, cell-based
[11] = tested on: U-937; experiment: Cytotoxicity against human U937 cells by MTT assay; assay type: functional, cell-based
[12] = tested on: HL-60; experiment: Induction of apoptosis in human HL60 cells assessed as increase in JNK phosphorylation level at 6 hrs; assay type: functional, cell-based
[13] = tested on: U-937; experiment: Induction of apoptosis in human U937 cells assessed as intercucleosomal DNA fragmentation at 10 uM by […] staining by flow cytometry; assay type: functional, cell-based; details: TDE = time-dependent effect
[14] = tested on: HL-60; experiment: Induction of apoptosis in human HL60 cells assessed as increase in ROS production; assay type: functional, cell-based; details: TDE = time-dependent effect
[15] = tested on: HL-60; experiment: Induction of apoptosis in human HL60 cells assessed as cytochrome c release from mitochondria at 10 uM after 24 hrs by Western blot analysis; assay type: functional, cell-based
[16] = tested on: HL-60; experiment: Induction of apoptosis in human HL60 cells assessed as early apoptotic cells at 10 uM by Annexin V staining; assay type: functional, cell-based; details: TDE = time-dependent effect
[17] = tested on: HL-60; experiment: Induction of apoptosis in NAC pretreated human HL60 cells assessed as increase in ROS production; assay type: functional, cell-based
[18] = tested on: HL-60; experiment: Induction of apoptosis in human HL60 cells assessed as Bax protein expression at 10 uM after 12 hrs by Western blot analysis; assay type: functional, cell-based
[19] = tested on: HL-60; experiment: Induction of apoptosis in human HL60 cells assessed as Bcl-2 family expression at 10 uM by Western blot analysis; assay type: functional, cell-based; details: TDE = time-dependent effect
[20] = Cytotoxicity against human L-132 cells by MTT assay; assay type: cell-based; details: L132
[21] = tested on: HL-60; experiment: Induction of apoptosis in human HL60 cells assessed as loss of mitochondrial membrane potential at 50 uM after 24 hrs by DiOC6 staining; assay type: functional, cell-based
[22] = tested on: K562; experiment: Induction of apoptosis in human K562 cells assessed as early apoptotic cells at 10 uM by Annexin V staining; assay type: functional, cell-based; details: TDE = time-dependent effect
[23] = tested on: K562; experiment: Cytotoxicity against human K562 cells by MTT assay; assay type: functional, cell-based
[24] = tested on: HL-60; experiment: Induction of apoptosis in human HL60 cells assessed as procaspase 3 cleavage at 10 uM after 36 hrs by Western blot analysis; assay type: functional, cell-based
[25] = Cytotoxicity against human IOSE-80PC cells by MTT assay; assay type: cell-based
[26] = tested on: K562; experiment: Induction of apoptosis in human K562 cells assessed as intercucleosomal DNA fragmentation at 10 uM by […] staining by flow cytometry; assay type: functional, cell-based; details: TDE = time-dependent effect
[27] = tested on: HL-60; experiment: Cytotoxicity against human HL60 cells by MTT assay; assay type: functional, cell-based
[28] = tested on: HeLa; experiment: Cytotoxicity against human HeLa cells by MTT assay; assay type: functional, cell-based
[29] = tested on: HL-60; experiment: Induction of apoptosis in human HL60 cells in presence of 10 uM SP600125 JNK inhibitor; assay type: functional, cell-based
[30] = tested on: HL-60; experiment: Induction of apoptosis in human HL60 cells assessed as Bcl-2 protein expression at 10 uM after 12 hrs by Western blot analysis; assay type: functional, cell-based
[31] = tested on: HL-60; experiment: Induction of apoptosis in human HL60 cells assessed as increase in JNK phosphorylation level at 12 hrs; assay type: functional, cell-based

CCc1cc2c(cc1-c1cc3ccc(OC)c(OC)c3c(=O)n1C)OCO2
5.62 µM: IC50 [27]
68 µM: IC50 [25]
59.4 µM: IC50 [20]
47.3 µM: IC50 [4]
inactive: Activity [6] | Activity [10] | Activity [17] | Activity [31]
42.2 µM: IC50 [28]
active: Activity [1] tde | Activity [2] | Activity [5] | Activity [7] | Activity [8] | Activity [9] tde | Activity [12] | Activity [13] tde | Activity [14] tde | Activity [15] | Activity [16] tde | Activity [18] | Activity [19] tde | Activity [21] | Activity [22] tde | Activity [24] | Activity [26] tde | Activity [29] | Activity [30]
39.9 µM: IC50 [3]
33.2 µM: IC50 [11]
38.1 µM: IC50 [23]

Source: ChEMBL document CHEMBL1268964, “CWJ-081, a novel 3-arylisoquinoline derivative, induces apoptosis in human leukemia HL-60 cells partially involves reactive oxygen species through c-Jun NH2-terminal kinase pathway” (Bioorg Med Chem Lett, 2010)
